Source: EP4610269A1, “UROKINASE PLASMINOGEN ACTIVATOR SURFACE RECEPTOR (UPAR) LIGANDS FOR DIAGNOSTIC OR THERAPEUTIC USE” (3B Pharmaceuticals GmbH, priority 2024, dated 2025)
Read-outs that look alike come from different tables or passages of the source. *1 amine or outer side, *2 acyl side, *3 side chain or, on linkers, in order; H or OH if unused. Where a SMILES comes first, the peptide text is derived from it. Bridges are numbered along the chain shown (N, C = ends). [ ]: non-standard residue; d: D form. The star is where a group is joined. DOTA(Lu) = O=C1CN2CCN3CCN(CC(=O)*)CCN(CC2)CC(=O)[O][Lu]([O]1)[O]C(=O)C3; nBuCAyl = n-butyl-carbamoyl (N-terminal blocking group), CCCCNC(=O)*; DOTA = O=C(O)CN1CCN(CC(=O)O)CCN(CC(=O)*)CCN(CC(=O)O)CC1; Hyp = O=C(O)[C@@H]1C[C@@H](O)CN1; Pentanoyl(4-Me) = CC(C)CCC(=O)*; Cit = NC(=O)NCCC[C@H](N)C(=O)O; Octanoyl = CCCCCCCC(=O)*; Nva = CCC[C@H](N)C(=O)O; Pentanoyl = CCCCC(=O)*; Aib = CC(C)(N)C(=O)O; CO = O=C([*:1])[*:2]; βAla = NCCC(=O)O; NHPr = CCCN*

Assays:
[1] = target: T1, uPAR-expressing HEC-265 human endometrial adenocarcinoma cells (Homo sapiens, UniProt Q03405); experiment: Competitive FACS binding assay; details: pIC50 category of FACS binding
T1 construct: Cell surface uPAR-expressing HEC-265 human endometrial adenocarcinoma cells; host or cells: HEC-265
T1 sequence (Q03405 23-335): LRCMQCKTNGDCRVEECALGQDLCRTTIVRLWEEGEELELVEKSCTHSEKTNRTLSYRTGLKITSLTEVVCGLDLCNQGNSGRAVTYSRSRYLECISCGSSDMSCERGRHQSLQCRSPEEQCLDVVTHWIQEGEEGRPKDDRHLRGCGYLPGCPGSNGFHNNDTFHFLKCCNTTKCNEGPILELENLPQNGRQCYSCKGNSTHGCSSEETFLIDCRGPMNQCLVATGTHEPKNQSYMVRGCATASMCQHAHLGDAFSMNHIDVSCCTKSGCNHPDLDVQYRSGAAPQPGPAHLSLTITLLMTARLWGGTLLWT
In short: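 Competitive displacement of a 10 nM biotinylated peptide from HEC-265 cells (1 h, 4 °C, PBS/1% BSA), detected via APC-streptavidin by flow cytometry. pIC50 from four-parameter logistic fit of median fluorescence versus concentration.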

human uPAR (uPAR-Fc) = target: T2, human uPAR (uPAR-Fc) (Homo sapiens, UniProt Q03405); experiment: Surface plasmon resonance (SPR) assay, single cycle kinetics; format: binding; details: pKD category for uPAR SPR activity assay, uPAR-Fc on Protein A-Chip, 25°C; for Kd: read-out: pKD CAT (converted)
T2 construct: comprising amino acids Leu23-Arg303 according to UniProt entry Q03405.1; purchased R&D Systems 10378-UK-100
T2 sequence (Q03405 23-303): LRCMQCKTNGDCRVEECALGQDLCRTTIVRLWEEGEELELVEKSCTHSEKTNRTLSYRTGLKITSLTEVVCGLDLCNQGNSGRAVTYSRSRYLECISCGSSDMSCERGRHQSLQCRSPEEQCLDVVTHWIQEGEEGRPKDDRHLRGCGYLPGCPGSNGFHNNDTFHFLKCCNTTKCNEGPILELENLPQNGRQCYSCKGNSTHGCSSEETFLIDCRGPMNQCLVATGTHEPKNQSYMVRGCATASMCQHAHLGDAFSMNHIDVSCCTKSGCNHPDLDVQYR
In short: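 uPAR-Fc (Leu23-Arg303 extracellular domains, human IgG1 Fc) captured on Protein A chip to ~2000 RU; single-cycle kinetics at 25°C in HEPES running buffer pH 7.4 with 0.1% DMSO. KD from double-referenced sensorgrams fitted to 1:1 Langmuir model, reported as pKD.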

CCCNC(=O)N[C@H]1CSSC[C@@H](C(N)=O)NC(=O)[C@H](CCC)NC(=O)[C@H]([C@@H](C)CC)NC(=O)[C@@H]2C[C@@H](O)CN2C(=O)[C@@H]2CCCN2C(=O)[C@H](Cc2ccccc2)NC(=O)[C@H](Cc2ccc(O)cc2)NC(=O)[C@H](CCCCNC(=O)CN2CCN(CC(=O)O)CCN(CC(=O)O)CCN(CC(=O)O)CC2)NC(=O)[C@H](CCCNC(N)=O)NC1=O [UPAR-210, PrCAyl-[Cys-Cit-Lys(DOTA)-Tyr-Phe-Pro-Hyp-Ile-Nva-Cys]-NH2] ({NHPr-CO}-C[Cit]K(DOTA)YFP[Hyp]I[Nva]C-NH2; disulfide 1-10)
IC50 [1]: ≤ 10 nM | Kd (human uPAR (uPAR-Fc)): < 1.58 nM

CC[C@H](C)[C@@H]1NC(=O)[C@H](CCCCNC(=O)CN2CCN(CC(=O)O)CCN(CC(=O)O)CCN(CC(=O)O)CC2)NC(=O)[C@@H]2CCCN2C(=O)[C@H](Cc2ccccc2)NC(=O)[C@H](Cc2ccc(O)cc2)NC(=O)[C@H](CCC(N)=O)NC(=O)[C@@H](C)NC(=O)[C@@H](NC(=O)CCC(C)C)CSSC[C@@H](C(N)=O)NC(=O)[C@H](CC(C)C)NC1=O [UPAR-414, iHex-[Cys-ala-Gln-Tyr-Phe-Pro-Lys(DOTA)-Ile-Leu-Cys]-NH2] ({Pentanoyl(4-Me)}-C[dA]QYFPK(DOTA)ILC-NH2; disulfide 1-10)
IC50 [1]: 12.6 to 31.6 nM | Kd (human uPAR (uPAR-Fc); single cycle kinetics): 10 to 100 nM

nBuCAyl-[Cys-Cit-Lys(LuDOTA)-Tyr-Phe-Pro-Hyp-Ile-Nva-Cys]-NH2 (nBuCAyl-C[Cit]K(DOTA(Lu))YFP[Hyp]I[Nva]C-NH2; disulfide 1-10; also: Lu(III) chelated by DOTA on Lys3) [UPAR-464]
pIC50 CAT [1]: A (pIC50 values ≥8.0) | pKD CAT (human uPAR (uPAR-Fc); single cycle kinetics): A (pKD values ≥ 8.8)

CCCCC(=O)N[C@H]1CSSC[C@@H](C(=O)NCCC(N)=O)NC(=O)[C@H](CCC)NC(=O)[C@H]([C@@H](C)CC)NC(=O)[C@@H]2C[C@@H](O)CN2C(=O)[C@@H]2CCCN2C(=O)[C@H](Cc2ccccc2)NC(=O)[C@H](Cc2ccc(O)cc2)NC(=O)[C@H](CCC(N)=O)NC(=O)[C@H](CCCNC(N)=O)NC1=O [UPAR-353, Pent-[Cys-Cit-Gln-Tyr-Phe-Pro-Hyp-Ile-Nva-Cys]-Bal-NH2] (Pentanoyl-C[Cit]QYFP[Hyp]I[Nva]C[βAla]-NH2; disulfide 1-10)
IC50 [1]: 12.6 to 31.6 nM | Kd (human uPAR (uPAR-Fc); single cycle kinetics): 1.58 to 10 nM

CCCCCCCC(=O)N[C@H]1CSSC[C@@H](C(N)=O)NC(=O)[C@H](CCC)NC(=O)[C@H]([C@@H](C)CC)NC(=O)[C@@H]2C[C@@H](O)CN2C(=O)[C@@H]2CCCN2C(=O)[C@H](Cc2ccccc2)NC(=O)[C@H](Cc2ccc(O)cc2)NC(=O)[C@H](CCC(N)=O)NC(=O)[C@H](CCCNC(=N)N)NC1=O [UPAR-193, Oct-[Cys-Arg-Gln-Tyr-Phe-Pro-Hyp-Ile-Nva-Cys]-NH2] (Octanoyl-CRQYFP[Hyp]I[Nva]C-NH2; disulfide 1-10)
IC50 [1]: ≤ 10 nM | Kd (human uPAR (uPAR-Fc)): < 1.58 nM

CC[C@H](C)[C@@H]1NC(=O)C(C)(C)NC(=O)[C@@H]2CCCN2C(=O)[C@H](Cc2ccccc2)NC(=O)[C@H](Cc2ccc(O)cc2)NC(=O)[C@H](CCCCNC(=O)CN2CCN(CC(=O)O)CCN(CC(=O)O)CCN(CC(=O)O)CC2)NC(=O)[C@H](CCCNC(N)=O)NC(=O)[C@@H](NC(=O)CCC(C)C)CSSC[C@@H](C(N)=O)NC(=O)[C@H](CC(C)C)NC1=O [UPAR-452, iHex-[Cys-Cit-Lys(DOTA)-Tyr-Phe-Pro-Aib-Ile-Leu-Cys]-NH2] ({Pentanoyl(4-Me)}-C[Cit]K(DOTA)YFP[Aib]ILC-NH2; disulfide 1-10)
IC50 [1]: ≤ 10 nM | Kd (human uPAR (uPAR-Fc); single cycle kinetics): < 1.58 nM

CCCCC(=O)N[C@H]1CSSC[C@@H](C(N)=O)NC(=O)[C@H](CCC)NC(=O)[C@H]([C@@H](C)CC)NC(=O)[C@@H]2C[C@@H](O)CN2C(=O)C(C)(C)NC(=O)[C@H](Cc2ccccc2)NC(=O)[C@H](Cc2ccc(O)cc2)NC(=O)[C@H](CCCCNC(=O)CN2CCN(CC(=O)O)CCN(CC(=O)O)CCN(CC(=O)O)CC2)NC(=O)[C@H]([C@@H](C)O)NC1=O [UPAR-419, Pent-[Cys-Thr-Lys(DOTA)-Tyr-Phe-Aib-Hyp-Ile-Nva-Cys]-NH2] (Pentanoyl-CTK(DOTA)YF[Aib][Hyp]I[Nva]C-NH2; disulfide 1-10)
IC50 [1]: 12.6 to 31.6 nM | Kd (human uPAR (uPAR-Fc); single cycle kinetics): 10 to 100 nM
